We go through 16 compounds from PubChem BioAssay (NCI).

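How tested: cells in 96-well plates exposed to compound for 48 hours at five concentrations. GI50: concentration for 50% inhibition of growth. TGI: concentration producing complete growth inhibition.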 Some results are limits rather than exact numbers.

Some test systems named below: COLO 205 colon; HCT-15 colon; MOLT-4 leukemia; NCI-H23 lung; OVCAR-5 ovarian; PC-3 prostate; SK-MEL-5 melanoma; SNB-75 CNS; HCC-2998 colon.
Experiment in all cases: NCI-60 cell line screen, 48 h

Regarding `Nc1cc(N)c2nc(-c3ccccc3)c(Nc3ccc(F)cc3)nc2c1`, the GI50 is 20.3 µM with COLO 205 colon; 12.7 µM with HCT-15 colon; over 100 µM in the test on MOLT-4 leukemia; 22.5 µM in the test with NCI-H23 lung; 38.4 µM in the test with OVCAR-5 ovarian; 11.7 µM in the test with PC-3 prostate. For the same compound, the GI50 in the test on SK-MEL-5 melanoma was 14.4 µM; in the test on SNB-75 CNS it was 20.8 µM. Further, the TGI in the test with COLO 205 colon is 55.9 µM; with HCT-15 colon, 38.1 µM; in the test with MOLT-4 leukemia, over 100 µM; in the test with NCI-H23 lung, 49.1 µM; with OVCAR-5 ovarian, over 100 µM; in the test on PC-3 prostate, over 100 µM. Moreover, the TGI worked out at 33 µM with SK-MEL-5 melanoma and 41.9 µM in the test with SNB-75 CNS.

Consider `O=[N+]([O-])c1ccc(Cc2nc3ccccc3s2)cc1`, for which the TGI in the test with COLO 205 colon, with HCC-2998 colon, in the test on HCT-15 colon, with MOLT-4 leukemia, in the test with NCI-H23 lung and in the test on OVCAR-5 ovarian was over 100 µM in each case. For the same compound, the TGI with SK-MEL-5 melanoma and in the test on SNB-75 CNS was over 100 µM in each case.

As to `O=C(CC(=O)Nc1ccc(Cl)cc1)NNCC(=O)Nc1nc(-c2ccccc2)cs1`, the TGI in the test on COLO 205 colon, in the test on HCC-2998 colon, with MOLT-4 leukemia, with NCI-H23 lung, with SK-MEL-5 melanoma and with SNB-75 CNS was over 100 µM in each case.

For `N=C(c1ccccc1)N1CCCCC1`, the TGI in the test with COLO 205 colon, in the test with HCC-2998 colon, with NCI-H23 lung, with OVCAR-5 ovarian and in the test on SNB-75 CNS was over 100 µM throughout.

With `Cc1ccccc1C(C#N)/C(=N/NC(=O)c1cc2ccccc2cc1O)C(=O)Nc1cccc(Cl)c1` (configuration not stated), the TGI was 72.5 µM with COLO 205 colon; 78.5 µM in the test on HCC-2998 colon; over 100 µM with HCT-15 colon; over 100 µM in the test on MOLT-4 leukemia; 51.2 µM in the test on NCI-H23 lung; 51.2 µM in the test with OVCAR-5 ovarian. The TGI in the test with SK-MEL-5 melanoma worked out at 27.4 µM; with SNB-75 CNS, 35.6 µM.

As for `CC(C)=CC(=O)Cc1nc2ccccc2[nH]c1=O`, the TGI in the test with COLO 205 colon, with HCC-2998 colon, in the test with HCT-15 colon, in the test on MOLT-4 leukemia, in the test with NCI-H23 lung and in the test on OVCAR-5 ovarian was over 100 µM throughout. Also, the TGI in the test on SK-MEL-5 melanoma and with SNB-75 CNS was over 100 µM each time.

`CN1C(c2ccccc2)CC(=Nc2ccccc2)CC1c1ccccc1` (configuration not stated): the TGI was determined as 22.8 µM in the test on COLO 205 colon; 29.9 µM in the test on HCT-15 colon; 28.7 µM in the test with MOLT-4 leukemia; 39.9 µM in the test on NCI-H23 lung; 22.8 µM with SK-MEL-5 melanoma; 50.4 µM in the test with SNB-75 CNS.

As to `CCNC(=O)C(O)C1(O)CCC2[C@@H]3CCC4=CC(=O)C=C[C@]4(C)C3[C@@H](O)C[C@@]21C` (some centres not stated), the TGI with COLO 205 colon, in the test with HCC-2998 colon, in the test on HCT-15 colon, with MOLT-4 leukemia, in the test with NCI-H23 lung and with OVCAR-5 ovarian was over 100 µM throughout. Further, in the test on SNB-75 CNS, the TGI is over 100 µM.

Turning to `COc1ccccc1NC(=O)CC(=O)n1nc(C)c(N=Nc2ccccc2F)c1C`, the TGI in the test on COLO 205 colon was over 100 µM; with HCC-2998 colon, over 100 µM; in the test with HCT-15 colon, over 100 µM; in the test on MOLT-4 leukemia, over 31.6 µM; in the test with NCI-H23 lung, over 100 µM; in the test on OVCAR-5 ovarian it was over 100 µM. Besides, the TGI was over 100 µM with SK-MEL-5 melanoma and 28.3 µM in the test on SNB-75 CNS.

For the compound `COC(=O)c1nc(-c2ccc(Cl)c(Cl)c2)nc2ccccc12`, the TGI in the test with HCC-2998 colon, in the test with HCT-15 colon, in the test with MOLT-4 leukemia, with NCI-H23 lung, with OVCAR-5 ovarian and with SK-MEL-5 melanoma was over 100 µM throughout. The same compound yielded a TGI in the test on SNB-75 CNS of 11.3 µM.

Turning to `C=CCOc1cc2c(cc1C(C)c1ccc(OC)cc1)OCO2` (configuration not stated), the TGI was 12.7 µM in the test on HCC-2998 colon; over 100 µM in the test with HCT-15 colon; over 40.6 µM with MOLT-4 leukemia; over 100 µM with NCI-H23 lung; over 100 µM with OVCAR-5 ovarian; over 100 µM in the test on PC-3 prostate. Moreover, the TGI with SK-MEL-5 melanoma is over 56.3 µM; in the test with SNB-75 CNS, 0.527 µM.

Consider `CSC(=S)N(C)c1nc(=[N+](C)C)ss1`, for which the TGI with HCC-2998 colon, in the test on HCT-15 colon, with MOLT-4 leukemia, in the test on NCI-H23 lung, in the test with OVCAR-5 ovarian and with SK-MEL-5 melanoma was over 100 µM in each case. Further, in the test with SNB-75 CNS, the TGI is over 100 µM.

`CC1(C)CCSC(/C=C/c2ccccc2)=N1`: the TGI with HCT-15 colon is 21.7 µM; in the test with MOLT-4 leukemia, over 100 µM; with NCI-H23 lung, 33.9 µM; with OVCAR-5 ovarian, 36.4 µM; with PC-3 prostate, 30.5 µM; in the test on SK-MEL-5 melanoma it was 28.8 µM.

For the compound `Cn1c2ccccc2c2c(=O)n(CCCC(=O)NCC(=O)OC(=NC3CCCCC3)NC3CCCCC3)c3c(-c4ccccc4)nnn3c21`, the GI50 in the test on COLO 205 colon was 2.81 µM; in the test on HCC-2998 colon, 10.2 µM; in the test on HCT-15 colon, 10.8 µM; in the test on MOLT-4 leukemia, 14.5 µM; in the test with NCI-H23 lung it was 15.6 µM; with OVCAR-5 ovarian it was 15.3 µM. For the same compound, the GI50 with PC-3 prostate was 22.7 µM; in the test with SK-MEL-5 melanoma, 5.98 µM. For the same compound, the TGI was over 100 µM in the test with COLO 205 colon; 26.8 µM in the test on HCC-2998 colon; over 100 µM with HCT-15 colon; over 100 µM in the test with MOLT-4 leukemia; 33 µM in the test with NCI-H23 lung; 32.5 µM with OVCAR-5 ovarian. Moreover, the TGI in the test with PC-3 prostate was over 100 µM; in the test with SK-MEL-5 melanoma, 31.6 µM.

Consider `COc1ccc2[nH]c3c(cnn4cnnc34)c2c1`, for which the TGI with COLO 205 colon, with HCC-2998 colon, in the test on HCT-15 colon, in the test with MOLT-4 leukemia, in the test on NCI-H23 lung and with OVCAR-5 ovarian was over 100 µM in each case. The TGI in the test on SK-MEL-5 melanoma and in the test with SNB-75 CNS was over 100 µM each time.

Take `Cc1cc2c(C(C)C)c(O)c(O)c3coc(/c1=c1/c(C)cc4c(C(C)C)c(=O)c(=O)c5coc1c45)c32`: the TGI is 5.34 µM in the test with COLO 205 colon; 14.8 µM in the test on HCC-2998 colon; 15.6 µM with HCT-15 colon; 17.4 µM with MOLT-4 leukemia; 9.2 µM in the test with NCI-H23 lung; 32.4 µM in the test with OVCAR-5 ovarian. The results for the TGI with SK-MEL-5 melanoma and in the test with SNB-75 CNS were 28.6 µM and 23.1 µM, respectively.
